Measured values published in PubChem BioAssay (NCI).
Values joined by “and” are separate entries in the source; they are usually repeats but may differ in a detail not shown here. Identical values can stand only once.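 Values below derive from 48-hour exposures of cells grown in 96-well plates, with endpoints linearly interpolated between the two concentrations bracketing the appropriate inhibition level. GI50 = concentration required for 50% inhibition of growth. At the TGI there is no net growth.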

How the values were obtained:
Assay in all cases: NCI tumour cell line growth inhibition, 48 h
[1] = test system: HL-60(TB) leukemia
[2] = test system: K-562 leukemia
[3] = test system: KM12 colon
[4] = test system: OVCAR-3 ovarian
[5] = test system: OVCAR-4 ovarian
[6] = test system: RPMI-8226 leukemia
[7] = test system: RXF 393 renal
[8] = test system: SF-268 CNS
[9] = test system: SK-OV-3 ovarian
[10] = test system: SN12C renal

SMILES: CCN(CC)c1ccc2c(c1)Nc1cc(=C(C#N)C#N)c3ccccc3c1=N2
- TGI [1]: > 100 µM
- TGI [2]: > 100 µM
- TGI [3]: > 100 µM
- TGI [4]: > 100 µM
- TGI [5]: > 100 µM
- TGI [6]: > 100 µM
- TGI [7]: > 100 µM
- TGI [8]: > 100 µM
- TGI [9]: > 100 µM
- TGI [10]: > 100 µM

SMILES: COC(=O)CCCCCN=Cc1c(O)c(O)c(C(C)C)c2cc(C)c(-c3c(C)cc4c(C(C)C)c(O)c(O)c(C=NCCCCCC(=O)OC)c4c3O)c(O)c12
- GI50 [1]: 1090 nM
- TGI [1]: 7.93 µM
- GI50 [2]: 1070 nM
- TGI [2]: 6.03 µM
- GI50 [3]: 1280 nM
- TGI [3]: > 32.5 µM
- GI50 [4]: 1270 nM
- TGI [4]: > 32.5 µM
- GI50 [5]: 1050 nM
- TGI [5]: > 32.5 µM
- GI50 [6]: 946 nM
- TGI [6]: 15.1 µM
- GI50 [7]: 851 nM
- TGI [7]: 4.65 µM
- GI50 [8]: 1510 nM
- TGI [8]: > 32.5 µM
- GI50 [9]: 1510 nM
- TGI [9]: 20 µM
- GI50 [10]: 1300 nM
- TGI [10]: > 32.5 µM

SMILES: COc1ccc2c(c1)[n+]([O-])c(/C(C)=N/NC(=O)CC#N)c[n+]2[O-]
- TGI [1]: > 100 µM
- TGI [2]: > 100 µM
- TGI [3]: > 100 µM
- TGI [4]: > 100 µM
- TGI [5]: > 100 µM
- TGI [6]: > 100 µM
- TGI [7]: > 100 µM
- TGI [8]: > 100 µM
- TGI [9]: > 100 µM
- TGI [10]: > 100 µM

SMILES: FCc1ncc(-c2ccc(C(F)(F)F)cc2)c(NC2CCCCCC2)n1
- GI50 [1]: > 10000 nM
- TGI [1]: > 10 µM
- GI50 [2]: > 10000 nM
- TGI [2]: > 10 µM
- GI50 [3]: > 10000 nM
- TGI [3]: > 10 µM
- GI50 [4]: > 10000 nM
- TGI [4]: > 10 µM
- GI50 [5]: > 10000 nM
- TGI [5]: > 10 µM
- GI50 [6]: > 10000 nM
- TGI [6]: > 10 µM
- GI50 [7]: > 10000 nM
- TGI [7]: > 10 µM
- GI50 [8]: > 10000 nM
- TGI [8]: > 10 µM
- GI50 [9]: > 10000 nM
- TGI [9]: > 10 µM
- GI50 [10]: > 10000 nM
- TGI [10]: > 10 µM

SMILES: COC(=O)CCC1=C(C)/C(=C/c2[nH]c(-c3ccc[nH]3)cc2OC)N=C1C
- GI50 [1]: 414 nM
- TGI [1]: 2.38 µM
- GI50 [2]: 374 nM
- TGI [2]: 4.9 µM
- GI50 [3]: 389 nM
- TGI [3]: 2.39 µM
- GI50 [4]: 397 nM
- TGI [4]: 1.7 µM
- GI50 [5]: 626 nM
- TGI [5]: 2.12 µM
- GI50 [6]: 272 nM
- TGI [6]: 1.38 µM
- GI50 [7]: 352 nM
- TGI [7]: 2.07 µM
- GI50 [8]: 708 nM
- TGI [8]: 7.01 µM
- GI50 [9]: 3930 nM
- TGI [9]: 11.6 µM
- GI50 [10]: 2350 nM
- TGI [10]: 18.1 µM

SMILES: c1nnc(NCNc2nncs2)s1
- TGI [1]: > 100 µM
- TGI [2]: > 100 µM
- TGI [3]: > 100 µM
- TGI [4]: > 100 µM
- TGI [5]: > 100 µM
- TGI [6]: > 100 µM
- TGI [7]: > 100 µM
- TGI [8]: > 100 µM
- TGI [9]: > 100 µM
- TGI [10]: > 100 µM

SMILES: CN1C(=O)C(Cl)(C(Cl)(Cl)S(=O)(=O)O)C(=O)c2ccccc21 (configuration not stated)
- TGI [1]: > 100 µM
- TGI [2]: > 100 µM
- TGI [3]: > 100 µM
- TGI [4]: > 100 µM
- TGI [5]: > 100 µM
- TGI [6]: > 100 µM
- TGI [7]: > 100 µM
- TGI [8]: > 100 µM
- TGI [9]: > 100 µM
- TGI [10]: > 100 µM

SMILES: O=C1c2ccccc2-n2c1nc1ccccc1c2=O
- TGI [1]: 41.4 µM
- TGI [2]: > 44.6 µM
- TGI [3]: > 67.1 µM
- TGI [4]: 30.2 µM
- TGI [5]: 53.7 µM
- TGI [6]: > 100 µM
- TGI [7]: > 81.6 µM
- TGI [8]: > 100 µM
- TGI [9]: > 100 µM
- TGI [10]: > 68.8 µM

SMILES: C/C(=N\NC(N)=S)c1nc2ccc(Cl)cc2[nH]1
- GI50 [1]: 1550 nM
- TGI [1]: 19.9 µM
- GI50 [2]: 2370 nM
- TGI [2]: > 50 µM
- GI50 [3]: 2030 nM
- TGI [3]: 16.2 µM
- GI50 [4]: 2850 nM
- TGI [4]: 14.1 µM
- GI50 [5]: 1310 nM
- TGI [5]: 19.9 µM
- GI50 [6]: 3300 nM
- TGI [6]: 30.6 µM
- GI50 [7]: 4590 nM
- TGI [7]: 28.7 µM
- GI50 [8]: 2030 nM
- TGI [8]: 11.3 µM
- GI50 [9]: 2310 nM
- TGI [9]: 9.19 µM
- GI50 [10]: 4720 nM
- TGI [10]: > 50 µM

SMILES: O=c1ccc(=O)c2c(=O)c3ccccc3c(=O)c1=2
- TGI [1]: 70.9 µM
- TGI [2]: > 100 µM
- TGI [3]: > 100 µM
- TGI [4]: 55.2 µM
- TGI [5]: > 100 µM
- TGI [6]: > 100 µM
- TGI [7]: > 100 µM
- TGI [8]: > 100 µM
- TGI [9]: > 100 µM
- TGI [10]: > 100 µM

SMILES: CCN(CC)CCCC(C)Nc1c2ccc(C)cc2nc2ccc(OC)cc12 (configuration not stated)
- GI50 [1]: 2710 nM
- TGI [1]: 9.44 µM
- GI50 [2]: 2920 nM
- TGI [2]: 10.6 µM
- GI50 [3]: 1390 nM
- TGI [3]: 9.19 µM
- GI50 [4]: 1750 nM
- TGI [4]: 4.14 µM
- GI50 [5]: 1130 nM
- TGI [5]: 3.02 µM
- GI50 [6]: 1750 nM
- TGI [6]: 5.05 µM
- GI50 [7]: 1440 nM
- TGI [7]: 2.88 µM
- GI50 [8]: 2530 nM
- TGI [8]: 13.5 µM
- GI50 [9]: 2420 nM
- TGI [9]: 15.7 µM
- GI50 [10]: 3120 nM
- TGI [10]: 55.1 µM

SMILES: O=C1CCCN1CC#CCN1CCCC1
- GI50 [1]: > 100000 nM
- TGI [1]: > 100 µM
- GI50 [2]: > 100000 nM
- TGI [2]: > 100 µM
- GI50 [3]: > 100000 nM
- TGI [3]: > 100 µM
- GI50 [4]: > 100000 nM
- TGI [4]: > 100 µM
- GI50 [5]: > 100000 nM
- TGI [5]: > 100 µM
- GI50 [6]: > 100000 nM
- TGI [6]: > 100 µM
- GI50 [7]: > 100000 nM
- TGI [7]: > 100 µM
- GI50 [8]: > 100000 nM
- TGI [8]: > 100 µM
- GI50 [9]: > 100000 nM
- TGI [9]: > 100 µM
- GI50 [10]: > 100000 nM
- TGI [10]: > 100 µM

SMILES: CNC(=S)N/N=C/c1ccc([N+](=O)[O-])s1
- TGI [1]: > 10 µM
- TGI [2]: > 10 µM
- TGI [3]: > 10 µM
- TGI [4]: 7.24 µM
- TGI [5]: > 10 µM
- TGI [6]: > 10 µM
- TGI [7]: > 10 µM
- TGI [8]: > 10 µM
- TGI [9]: > 10 µM
- TGI [10]: > 10 µM

SMILES: CCOc1ccccc1NC(=O)CCc1nc(=S)[nH][nH]1
- TGI [1]: > 100 µM
- TGI [2]: > 100 µM
- TGI [3]: > 100 µM
- TGI [4]: > 100 µM
- TGI [5]: > 100 µM
- TGI [6]: > 100 µM
- TGI [7]: > 100 µM
- TGI [8]: > 100 µM
- TGI [9]: > 100 µM
- TGI [10]: > 100 µM

SMILES: COc1cc(S(C)(=O)=O)ccc1Nc1nc2ccc(-c3ccc(NC(=O)[C@H](C)c4ccc(F)cc4)cc3)cn2n1
- GI50 [1]: 12900 nM
- TGI [1]: > 100 µM
- GI50 [2]: > 78700 nM
- TGI [2]: > 100 µM
- GI50 [3]: > 72400 nM
- TGI [3]: > 100 µM
- GI50 [4]: > 100000 nM
- TGI [4]: > 100 µM
- GI50 [5]: > 100000 nM
- TGI [5]: > 100 µM
- GI50 [6]: 847 nM
- TGI [6]: > 100 µM
- GI50 [7]: > 48500 nM
- TGI [7]: > 100 µM
- GI50 [8]: > 100000 nM
- TGI [8]: > 100 µM
- GI50 [9]: > 100000 nM
- TGI [9]: > 100 µM
- GI50 [10]: > 100000 nM
- TGI [10]: > 100 µM

SMILES: COc1ccc(-c2cn[nH]c2-c2cc(OC)c3c(c2)OCCO3)cc1
- GI50 [1]: 81.5 nM
- TGI [1]: 13 µM
- GI50 [2]: 39.1 nM
- TGI [2]: > 100 µM
- GI50 [3]: 50.2 nM
- TGI [3]: 7.85 µM
- GI50 [4]: 42.3 nM
- TGI [4]: 0.3 µM
- GI50 [5]: 1030 nM
- TGI [5]: > 100 µM
- GI50 [6]: 373 nM
- TGI [6]: 25.2 µM
- GI50 [7]: 219 nM
- TGI [7]: 2.77 µM
- GI50 [8]: 1030 nM
- TGI [8]: > 74.2 µM
- GI50 [9]: 400 nM
- TGI [9]: 35.5 µM
- GI50 [10]: 1280 nM
- TGI [10]: 73.7 µM

SMILES: O=C1Nc2cccc3cc(NCC(O)CCl)cc1c23 (configuration not stated)
- TGI [1]: > 100 µM
- TGI [2]: > 100 µM
- TGI [3]: > 100 µM
- TGI [4]: > 100 µM
- TGI [5]: > 100 µM
- TGI [6]: > 100 µM
- TGI [7]: > 100 µM
- TGI [8]: > 100 µM
- TGI [9]: > 100 µM
- TGI [10]: > 100 µM

SMILES: O=C1CCC(O)=C1O
- TGI [1]: > 100 µM
- TGI [2]: > 100 µM
- TGI [3]: > 100 µM
- TGI [4]: > 100 µM
- TGI [5]: > 100 µM
- TGI [6]: > 100 µM
- TGI [7]: > 100 µM
- TGI [8]: > 100 µM
- TGI [9]: > 100 µM
- TGI [10]: > 100 µM

SMILES: CC[C@@]1(O)C(=O)OCc2c1cc1n(c2=O)Cc2cc3cc(N)ccc3nc2-1
- GI50 [1]: 71.8 nM
- TGI [1]: 1.03 µM
- GI50 [2]: 51.2 nM and 43 nM
- GI50 [3]: 232 nM
- TGI [3]: 2.9 µM
- GI50 [4]: 84.7 nM and 65.3 nM
- TGI [4]: 0.608 µM and 0.346 µM
- GI50 [5]: 48 nM and 169 nM
- TGI [5]: 0.233 µM
- GI50 [6]: 106 nM and 99.4 nM
- TGI [6]: 4.45 µM
- GI50 [7]: 48.9 nM
- TGI [8]: 1.04 µM and 0.146 µM
- GI50 [9]: 35 nM
- TGI [9]: 2.64 µM and 0.756 µM
- GI50 [10]: 14.2 nM
- TGI [10]: 0.243 µM and 0.123 µM
